Measurements from US10364263B2, “Cyclic phosphates and cyclic phosphoramidates for the treatment of neurologic disorders” (Retrophin, Inc., priority 2015, dated 2019).
Read-outs that look alike come from different tables or passages of the source.

How the values were obtained:
[1] = Stability in human hepatocytes; type: in vitro ADME; conditions: for half-life at 5 µM: t1/2, Human Hepatocytes; for half-life: 5 μM, 1 million cells/ml, 37° C., human hepatocytes
Method: (§1) Stability in hepatocytes for select compounds disclosed in the application was evaluated in two species (mouse and human) according to the following procedure. Compounds and positive control samples were dissolved in 100% DMSO at 5 mM. Cryopreserved hepatocytes were thawed and resuspended in Hepatocyte Basal Medium (HBM-Lonza CC-3199) supplemented with CC-4182 (complete hepatocyte culture medium). Test compounds were diluted into cell suspension (1 million cells/ml) from the stock solutions to have a test compound concentration of 5 μM (0.1% DMSO). Incubation was performed in 24-well plates, at 37° C. in a DUBNOFF water bath, under low shaking. Each compound was tested at 6 time points, in duplicates (0, 15, 30, 60, 120 and 240 min). At each time point, an aliquot of 120 μl was taken and transferred to a 96-well deep plate. The reaction was stopped with the addition of one volume of 100% acetonitrile plus 0.1% formic acid and the appropriate internal standard. Then samples were centrifuged at 1100×g for 30 min at +4° C. and supernatants were transferred to a new 96-deepwell plate. Samples were evaporated under N2 and reconstituted in H2O/ACN 0.1% Formic Acid (98:2). Analysis was performed without a calibration curve (Acquity UPLC-Waters; Sciex API4000). Time 0 was obtained adding acetonitrile before addition of the test compound. […] The half-life (t1/2) expressed in hours is derived using Equation 1 as shown in Example 64.

[2] = tested on: PANK2 silenced human neuroblastoma IMR32 cells (PANK2−/−); test: Coenzyme A assay in PANK2 silenced cells (LC-MS quantification of free CoA); type: cell-based; conditions: compound added twice (24 h + 24 h), relative to 0.1% DMSO controls
Procedure, shortened: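 Free intracellular CoA was measured by positive-mode LC-MS/MS of 20% TFA extracts, taking 2 μl per 10^6 cells as intracellular volume. Cells were IMR32 with stable lentiviral PANK2 knockdown, dosed twice 24 h apart (48 h total, 0.1% DMSO). Output is fold increase over vehicle.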

[3] = Stability in mouse hepatocytes; type: in vitro ADME
Method: as §1

[4] = Stability in human plasma; type: in vitro ADME; conditions: 37° C.
Procedure, shortened: (§2)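 Test compound at 3 μM (0.1% DMSO) was incubated in mouse or human plasma at 37 °C and sampled in duplicate at 0, 10, 20, 30, 40 and 60 min. Reactions were stopped with acetonitrile/formic acid containing internal standard. Remaining parent was measured by UPLC-MS/MS without a calibration curve.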

[5] = Stability in mouse plasma; type: in vitro ADME
Procedure, shortened: as §2

[6] = t1/2, Mouse Hepatocytes, Diastereoisomer A
[7] = t1/2, Mouse Hepatocytes, Diastereoisomer B
[8] = human, plasma, Diastereoisomer A (upfield shift in 31P NMR), read-out: t1/2, Human Plasma, Diastereoisomer A (converted)
[9] = human, plasma, Diastereoisomer B, read-out: t1/2, Human Plasma, Diastereoisomer B (converted)

Row | Compound | half-life at 5 µM ([1]; Diastereoisomer A) [min] | half-life at 5 µM ([1]; Diastereoisomer B) [min] | half-life at 5 µM [3, 6] [min] | half-life at 5 µM [3, 7] [min] | half-life at 3 µM [4, 8] [min] | half-life at 3 µM ([5]; mouse, plasma) [min] | half-life at 3 µM [4, 9] [min] | t1/2, Mouse Plasma, Diastereoisomer B ([5]; mouse, plasma, 3 µM) [min] | PANK2−/− CoA (Fold Increase): fold increase in Coenzyme A (CoA) levels relative to controls [2] [Fold Increase] | half-life at 3 µM ([4]; Diastereoisomer A (upfield shift in 31P NMR), read-out: t1/2, Human Plasma, Diastereoisomer A (converted)) [min] | t1/2, Human Plasma, Diastereoisomer B ([4]; Diastereoisomer B, 3 μM) [h] | half-life at 3 µM ([5]; Diastereoisomer A (upfield shift in 31P NMR), 3 μM, 37° C., mouse plasma, read-out: t1/2, Mouse Plasma, Diastereoisomer A) [min] | t1/2, Mouse Plasma, Diastereoisomer B ([5]; Diastereoisomer B, 3 μM, 37° C., mouse plasma) [min] | half-life ([1]; Diastereoisomer A (upfield shift in 31P NMR), read-out: t1/2, Human Hepatocytes, Diastereoisomer A (converted)) [min] | half-life ([1]; Diastereoisomer B, read-out: t1/2, Human Hepatocytes, Diastereoisomer B (converted)) [min] | half-life at 5 µM ([3]; Diastereoisomer A (upfield shift in 31P NMR), 5 μM, 1 million cells/ml, 37° C., mouse hepatocytes, read-out: t1/2, Mouse Hepatocytes, Diastereoisomer A (converted)) [min] | half-life at 5 µM ([3]; Diastereoisomer B, 5 μM, 1 million cells/ml, 37° C., mouse hepatocytes, read-out: t1/2, Mouse Hepatocytes, Diastereoisomer B (converted)) [min]
1 | COC(=O)CCNC(=O)[C@@H]1OP(=O)(OCOC(C)=O)OCC1(C)C (stereo partly drawn) [Compound No. 68, Methyl 3-((4R)-2-(acetoxymethoxy)-5,5-dimethyl-2-oxido-1,3,2-dioxaphosphinane-4-carboxamido)propanoate] | < 15 | < 15 | < 15 | < 15 |  |  |  |  | 125.97 |  |  |  |  |  |  |  | 
2 | CC(C)(C)C(=O)OCOP1(=O)OCC(C)(C)[C@H](C(=O)NCCC(=O)OCc2ccncc2)O1 (stereo in doubt) [Compound No. 71, (((2S,4R)-5,5-dimethyl-2-oxido-4-((3-oxo-3-(pyridin-4-ylmethoxy)propyl)carbamoyl)-1,3,2-dioxaphosphinan-2-yl)oxy)methyl pivalate] | < 15 | < 15 | < 15 | < 15 | > 60 | < 9.6 | < 9.6 | <9.6 | 39.37 |  |  |  |  |  |  |  | 
3 | COC(=O)CCNC(=O)[C@@H]1OP(=O)(NCC(=O)OCc2ccccc2)OCC1(C)C (stereo partly drawn) [compound 118, methyl 3-((4R)-2-((2-(benzyloxy)-2-oxoethyl)amino)-5,5-dimethyl-2-oxido-1,3,2-dioxaphosphinane-4-carboxamido) propanoate] |  |  |  |  |  |  |  |  | 2.96 | > 60 | >1 | < 9.6 | <9.6 | 25.8 | < 15 | < 15 | < 15
4 | COC(=O)CCNC(=O)[C@@H]1OP(=O)(OCOC(=O)c2ccc(CN3CCCC3)cc2)OCC1(C)C (stereo partly drawn) [Compound No. 76, (((4R)-4-((3-methoxy-3-oxopropyl)carbamoyl)-5,5-dimethyl-2-oxido-1,3,2-dioxaphosphinan-2-yl)oxy)methyl 4-(pyrrolidin-1-ylmethyl)benzoate] | 31.2 | < 15 | < 15 | < 15 | < 9.6 | < 9.6 | < 9.6 | <9.6 | 79.95 |  |  |  |  |  |  |  | 
5 | CC(C)(C)C(=O)OCO[P@@]1(=O)OCC(C)(C)[C@H](C(=O)NCCC(=O)OCCS(C)(=O)=O)O1 (single isomer, unassigned) [Compound No. 78] | 26.4 | 19.8 | < 15 | < 15 | > 60 | < 9.6 | < 9.6 | <9.6 | 120.6 |  |  |  |  |  |  |  | 
6 | COC(=O)CCNC(=O)[C@@H]1OP(=O)(OC(C)OC(=O)c2ccccc2)OCC1(C)C (stereo partly drawn) [compound 98, 1-(((4R)-4-((3-methoxy-3-oxopropyl)carbamoyl)-5,5-dimethyl-2-oxido-1,3,2-dioxaphosphinan-2-yl)oxy)ethyl benzoate] | < 15 | < 15 | < 15 | < 15 | > 60 | < 9.6 | 18 | <9.6 | 4.01 |  |  |  |  |  |  |  | 
7 | COC(=O)CCNC(=O)[C@@H]1OP(=O)(N[C@H](C(=O)OC(C)(C)C)C2CCCCC2)OCC1(C)C (stereo partly drawn) [compound 14, methyl 3-((4R)-2-(((S)-2-(tert-butoxy)-1-cyclohexyl-2-oxoethyl)amino)-5,5-dimethyl-2-oxido-1,3,2-dioxaphosphinane-4-carboxamido)propanoate] | 17.4 | < 15 | < 15 | < 15 | > 60 | < 9.6 | > 60 | <9.6 | 1.59 |  |  |  |  |  |  |  | 
8 | CCC(CC)C(=O)OCOP1(=O)OCC(C)(C)[C@H](C(=O)NCCC(=O)OC)O1 (stereo partly drawn) [Compound No. 67, (((4R)-4-((3-methoxy-3-oxopropyl)carbamoyl)-5,5-dimethyl-2-oxido-1,3,2-dioxaphosphinan-2-yl)oxy)methyl 2-ethylbutanoate] | < 15 | < 15 | < 15 | < 15 | > 60 | < 9.6 | < 9.6 | <9.6 | 122.4 |  |  |  |  |  |  |  | 
9 | COC(=O)CCNC(=O)[C@@H]1O[P@](=O)(OCOC(=O)NCCOC(=O)[C@@H](NC(=O)OCc2ccccc2)C(C)C)OCC1(C)C (single isomer, unassigned) [2-161] | 25.8 |  | < 15 |  |  |  |  |  | 71.14 |  |  |  |  |  |  |  | 

Further lines, with some results ahead:

Row | half-life at 5 µM ([1]; Diastereoisomer A) [min] | half-life at 5 µM ([1]; Diastereoisomer B) [min] | half-life at 5 µM [3, 6] [min] | half-life at 5 µM [3, 7] [min] | half-life at 3 µM [4, 8] [min] | half-life at 3 µM ([5]; mouse, plasma) [min] | half-life at 3 µM [4, 9] [min] | t1/2, Mouse Plasma, Diastereoisomer B ([5]; mouse, plasma, 3 µM) [min] | Compound | PANK2−/− CoA (Fold Increase): fold increase in Coenzyme A (CoA) levels relative to controls [2] [Fold Increase] | half-life at 3 µM ([4]; Diastereoisomer A (upfield shift in 31P NMR), read-out: t1/2, Human Plasma, Diastereoisomer A (converted)) [min] | t1/2, Human Plasma, Diastereoisomer B ([4]; Diastereoisomer B, 3 μM) [h] | half-life at 3 µM ([5]; Diastereoisomer A (upfield shift in 31P NMR), 3 μM, 37° C., mouse plasma, read-out: t1/2, Mouse Plasma, Diastereoisomer A) [min] | t1/2, Mouse Plasma, Diastereoisomer B ([5]; Diastereoisomer B, 3 μM, 37° C., mouse plasma) [min] | half-life ([1]; Diastereoisomer A (upfield shift in 31P NMR), read-out: t1/2, Human Hepatocytes, Diastereoisomer A (converted)) [min] | half-life ([1]; Diastereoisomer B, read-out: t1/2, Human Hepatocytes, Diastereoisomer B (converted)) [min] | half-life at 5 µM ([3]; Diastereoisomer A (upfield shift in 31P NMR), 5 μM, 1 million cells/ml, 37° C., mouse hepatocytes, read-out: t1/2, Mouse Hepatocytes, Diastereoisomer A (converted)) [min] | half-life at 5 µM ([3]; Diastereoisomer B, 5 μM, 1 million cells/ml, 37° C., mouse hepatocytes, read-out: t1/2, Mouse Hepatocytes, Diastereoisomer B (converted)) [min]
10 | > 240 |  | 36 |  | > 60 | < 9.6 |  |  | COC(=O)CCNC(=O)[C@@H]1OP(=O)(N[C@@H](Cc2cccnc2)C(=O)OC)OCC1(C)C (stereo partly drawn) [compound 25, (2S)-methyl 2-(((4R)-4-((3-methoxy-3-oxopropyl)carbamoyl)-5,5-dimethyl-2-oxido-1,3,2-dioxaphosphinan-2-yl)amino)-3-(pyridin-3-yl)propanoate] | 0.95 |  |  |  |  |  |  |  | 
11 | 36 | 15.6 | < 15 | < 15 | > 60 | < 9.6 | > 60 | <9.6 | COC(=O)CCNC(=O)[C@@H]1OP(=O)(N[C@@H](Cc2cncs2)C(=O)OCc2ccccc2)OCC1(C)C (stereo partly drawn) [compound 29, benzyl (2S)-2-(((4R)-4-((3-methoxy-3-oxopropyl)carbamoyl)-5,5-dimethyl-2-oxido-1,3,2-dioxaphosphinan-2-yl)amino)-3-(thiazol-5-yl)propanoate] | 1.17 |  |  |  |  |  |  |  | 
12 | < 15 |  | < 15 |  | < 9.6 | < 9.6 |  |  | COC(=O)CCNC(=O)[C@@H]1O[P@](=O)(OCOC(=O)C(C)(C)C)OCC1(C)C (single isomer, unassigned) [Compound No. 89] | 154.1 |  |  |  |  |  |  |  | 
13 | 36.6 |  | < 15 |  |  |  |  |  | COC(=O)CCNC(=O)[C@@H]1O[P@@](=O)(OCOC(=O)NCCOC(=O)[C@@H](NC(=O)OCc2ccccc2)C(C)C)OCC1(C)C (single isomer, unassigned) [2-160] | 7.99 |  |  |  |  |  |  |  | 
